# Laboratory results as given in patent US20050245399A1, “Pyrazole derivatives as herbicidal compositions containing them” (ISHIHARA SANGYO KAISHA, LTD., priority 2004, published 2005).
# System: soybean (Glycine max Merr.): GLXMA
# Assay: Test Example 1 pre-emergence herbicidal activity, GLXMA
# Type: in vivo
# Settings: Rate 63 g a.i./ha, visually observed 20th to 23rd day after application
# In short: (§1)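 Scoring was visual growth control (0 = untreated, 100 = complete kill) on days 20–23 post-application. Treatment came as a pre-emergence spray one day after sowing in upland soil, using wettable powder or emulsifiable concentrate diluted in 500 L/ha water at predetermined active-ingredient amounts.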
row,SMILES,Pre-emergence Herbicidal Activity GLXMA (growth controlling degree) [%]
1,COc1c(Cl)cc(F)c(-c2nn(C)c(OC(F)F)c2Cl)c1NC(=O)C=C(C)C [Compound 1-9],90
2,COc1c(Cl)cc(F)c(-c2nn(C)c(OC(F)F)c2Cl)c1N(C=O)C1CCCC1 [Compound 1-10],50

# System: green foxtail (Setaria viridis L.): SETVI
# Assay: Test Example 1 pre-emergence herbicidal activity, SETVI
# Type: in vivo
# Settings: Rate 63 g a.i./ha, visually observed 20th to 23rd day after application
# In short: as §1
row,SMILES,Pre-emergence Herbicidal Activity SETVI (growth controlling degree) [%]
1,COc1c(Cl)cc(F)c(-c2nn(C)c(OC(F)F)c2Cl)c1NC(=O)C=C(C)C [Compound 1-9],100
2,COc1c(Cl)cc(F)c(-c2nn(C)c(OC(F)F)c2Cl)c1N(C=O)C1CCCC1 [Compound 1-10],100

# System: crabgrass (Digitaria sanguinalis L.): DIGSA
# Assay: Test Example 1 pre-emergence herbicidal activity, DIGSA
# Type: in vivo
# Settings: Rate 63 g a.i./ha, visually observed 20th to 23rd day after application
# In short: as §1
row,SMILES,Pre-emergence Herbicidal Activity DIGSP (growth controlling degree) [%]
1,COc1c(Cl)cc(F)c(-c2nn(C)c(OC(F)F)c2Cl)c1NC(=O)C=C(C)C [Compound 1-9],98
2,COc1c(Cl)cc(F)c(-c2nn(C)c(OC(F)F)c2Cl)c1N(C=O)C1CCCC1 [Compound 1-10],60

# System: barnyardgrass (Echinochloa crus-galli L.): ECHCG
# Assay: Test Example 1 pre-emergence herbicidal activity, ECHCG
# Type: in vivo
# Settings: Rate 63 g a.i./ha, visually observed 20th to 23rd day after application
# In short: as §1
row,SMILES,Pre-emergence Herbicidal Activity ECHCG (growth controlling degree) [%]
1,COc1c(Cl)cc(F)c(-c2nn(C)c(OC(F)F)c2Cl)c1NC(=O)C=C(C)C [Compound 1-9],80
2,COc1c(Cl)cc(F)c(-c2nn(C)c(OC(F)F)c2Cl)c1N(C=O)C1CCCC1 [Compound 1-10],90

# System: velvetleaf (Abutilon theophrasti), ABUTH
# Assay: Test Example 2 post-emergence (foliage treatment) herbicidal activity, ABUTH
# Type: in vivo
# Settings: 63 g a.i./ha
# In short: (§2)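 A small sprayer delivered the diluted WP or EC formulation (500 L/ha water, 0.1% v/v spreader) over emerged seedlings in upland soil pots. Damage relative to untreated plants was graded visually from 0 to 100% three weeks or so later (days 20-23).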
row,SMILES,"growth controlling degree, ABUTH [%]"
1,COc1c(Cl)cc(F)c(-c2nn(C)c(OC(F)F)c2Cl)c1NC(=O)C=C(C)C [Compound 1-9],100
2,COc1c(Cl)cc(F)c(-c2nn(C)c(OC(F)F)c2Cl)c1N(C=O)C1CCCC1 [Compound 1-10],100

# System: rice (Oryza sativa L.): ORYSA
# Assay: Test Example 1 pre-emergence herbicidal activity, ORYSA
# Type: in vivo
# Settings: Rate 63 g a.i./ha, visually observed 20th to 23rd day after application
# In short: as §1
row,SMILES,Pre-emergence Herbicidal Activity ORYSA (growth controlling degree) [%]
1,COc1c(Cl)cc(F)c(-c2nn(C)c(OC(F)F)c2Cl)c1NC(=O)C=C(C)C [Compound 1-9],80
2,COc1c(Cl)cc(F)c(-c2nn(C)c(OC(F)F)c2Cl)c1N(C=O)C1CCCC1 [Compound 1-10],70

# System: redroot pigweed (Amaranthus retroflexus L.), AMARE
# Assay: Test Example 2 post-emergence (foliage treatment) herbicidal activity, AMARE
# Type: in vivo
# Settings: 63 g a.i./ha
# In short: (§3)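 Visual rating of growth control, from 0 (untreated-like) to 100 (complete kill), was done 20–23 days after post-emergence spraying. Wettable powder or emulsifiable concentrate was diluted to 500 L/ha with 0.1% (v/v) spreader. Leaf stages at application were 1.1-2.1 (ECHCG), 1.0-2.0 (DIGSA), 0.1-1.5 (AMARE) and 1.0-2 (ORYSA).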
row,SMILES,"growth controlling degree, AMARE [%]"
1,COc1c(Cl)cc(F)c(-c2nn(C)c(OC(F)F)c2Cl)c1NC(=O)C=C(C)C [Compound 1-9],100
2,COc1c(Cl)cc(F)c(-c2nn(C)c(OC(F)F)c2Cl)c1N(C=O)C1CCCC1 [Compound 1-10],100

# System: corn (Zea mays L.), ZEAMX
# Assay: Test Example 2 post-emergence (foliage treatment) herbicidal activity, ZEAMX
# Type: in vivo
# Settings: 63 g a.i./ha
# In short: as §2
row,SMILES,"growth controlling degree, ZEAMX [%]"
1,COc1c(Cl)cc(F)c(-c2nn(C)c(OC(F)F)c2Cl)c1NC(=O)C=C(C)C [Compound 1-9],70
2,COc1c(Cl)cc(F)c(-c2nn(C)c(OC(F)F)c2Cl)c1N(C=O)C1CCCC1 [Compound 1-10],40

# System: prickly sida (Sida spinosa L.): SEDSP
# Assay: Test Example 1 pre-emergence herbicidal activity, SIDSP
# Type: in vivo
# Settings: Rate 63 g a.i./ha, visually observed 20th to 23rd day after application
# In short: as §1
row,SMILES,Pre-emergence Herbicidal Activity SIDSP (growth controlling degree) [%]
1,COc1c(Cl)cc(F)c(-c2nn(C)c(OC(F)F)c2Cl)c1NC(=O)C=C(C)C [Compound 1-9],100
2,COc1c(Cl)cc(F)c(-c2nn(C)c(OC(F)F)c2Cl)c1N(C=O)C1CCCC1 [Compound 1-10],100

# System: crabgrass (Digitaria sanguinalis L.), DIGSA
# Assay: Test Example 2 post-emergence (foliage treatment) herbicidal activity, DIGSA
# Type: in vivo
# Settings: 63 g a.i./ha
# In short: as §3
row,SMILES,"growth controlling degree, DIGSP [%]"
1,COc1c(Cl)cc(F)c(-c2nn(C)c(OC(F)F)c2Cl)c1NC(=O)C=C(C)C [Compound 1-9],98
2,COc1c(Cl)cc(F)c(-c2nn(C)c(OC(F)F)c2Cl)c1N(C=O)C1CCCC1 [Compound 1-10],60

# System: barnyardgrass (Echinochloa crus-galli L.), ECHCG
# Assay: Test Example 2 post-emergence (foliage treatment) herbicidal activity, ECHCG
# Type: in vivo
# Settings: 63 g a.i./ha
# In short: as §3
row,SMILES,"growth controlling degree, ECHCO [%]"
1,COc1c(Cl)cc(F)c(-c2nn(C)c(OC(F)F)c2Cl)c1NC(=O)C=C(C)C [Compound 1-9],80
2,COc1c(Cl)cc(F)c(-c2nn(C)c(OC(F)F)c2Cl)c1N(C=O)C1CCCC1 [Compound 1-10],90

# System: green foxtail (Setaria viridis L.), SETVI
# Assay: Test Example 2 post-emergence (foliage treatment) herbicidal activity, SETVI
# Type: in vivo
# Settings: 63 g a.i./ha
# In short: as §2
row,SMILES,"growth controlling degree, SETVI [%]"
1,COc1c(Cl)cc(F)c(-c2nn(C)c(OC(F)F)c2Cl)c1NC(=O)C=C(C)C [Compound 1-9],100
2,COc1c(Cl)cc(F)c(-c2nn(C)c(OC(F)F)c2Cl)c1N(C=O)C1CCCC1 [Compound 1-10],100

# System: wheat (Triticum aestivum L.): TRZAX
# Assay: Test Example 1 pre-emergence herbicidal activity, TRZAX
# Type: in vivo
# Settings: Rate 63 g a.i./ha, visually observed 20th to 23rd day after application
# In short: as §1
row,SMILES,Pre-emergence Herbicidal Activity TRZAX (growth controlling degree) [%]
1,COc1c(Cl)cc(F)c(-c2nn(C)c(OC(F)F)c2Cl)c1NC(=O)C=C(C)C [Compound 1-9],40
2,COc1c(Cl)cc(F)c(-c2nn(C)c(OC(F)F)c2Cl)c1N(C=O)C1CCCC1 [Compound 1-10],40

# System: common cocklebur (Xanthium strumarium L.): XANST
# Assay: Test Example 1 pre-emergence herbicidal activity, XANST
# Type: in vivo
# Settings: Rate 63 g a.i./ha, visually observed 20th to 23rd day after application
# Excerpt: Upland field soil was put into a 1/170,000 ha pot, and seeds of various plants {1. barnyardgrass (Echinochloa crus-galli L.): ECHCG, 2. crabgrass (Digitaria sanguinalis L.): DIGSA, 3. green foxtail (Setaria viridis L.): SETVI, 4. redroot pigweed (Amaranthus retroflexus L.): AMARE, 5. prickly sida (Sida spinosa L.): SEDSP, 6. velvetleaf (Abutilon theophrasti): ABUTH, 7. common cocklebur (Xanthium strumarium L.): XANST, 8. rice (Oryza sativa L.): ORYSA, 9. wheat (Triticum aestivum L.): TRZAX, 10. corn (Zea mays L.): ZEAMX, 11. soybean (Glycine max Merr.): GLXMA} were sown. Then, one day after the sowing, a wettable powder or emulsifiable concentrate having the compound of the present invention formulated in accordance with a usual formulation method, was weighed so that the active ingredient would be a predetermined amount and diluted with water in an amount of 500 L/ha. The herbicide adjusted was applied by a small size sprayer for preemergence treatment. On the 20th to 23rd day after the application of the herbicide, the growth of the respective plants was visually observed, and the herbicidal effects were evaluated by growth controlling degrees (%) ranging from 0 (equivalent to the untreated control) to 100 (complete kill), whereby the results shown in Table 4, were obtained. Compound Nos. in Table 4 correspond to Compound Nos. in Table 1 and 2 given hereinbefore.
row,SMILES,Pre-emergence Herbicidal Activity XANST (growth controlling degree) [%]
1,COc1c(Cl)cc(F)c(-c2nn(C)c(OC(F)F)c2Cl)c1NC(=O)C=C(C)C [Compound 1-9],70
2,COc1c(Cl)cc(F)c(-c2nn(C)c(OC(F)F)c2Cl)c1N(C=O)C1CCCC1 [Compound 1-10],100

# System: redroot pigweed (Amaranthus retroflexus L.): AMARE
# Assay: Test Example 1 pre-emergence herbicidal activity, AMARE
# Type: in vivo
# Settings: Rate 63 g a.i./ha, visually observed 20th to 23rd day after application
# In short: as §1
row,SMILES,Pre-emergence Herbicidal Activity AMARE (growth controlling degree) [%]
1,COc1c(Cl)cc(F)c(-c2nn(C)c(OC(F)F)c2Cl)c1NC(=O)C=C(C)C [Compound 1-9],100
2,COc1c(Cl)cc(F)c(-c2nn(C)c(OC(F)F)c2Cl)c1N(C=O)C1CCCC1 [Compound 1-10],100

# System: common cocklebur (Xanthium strumarium L.), XANST
# Assay: Test Example 2 post-emergence (foliage treatment) herbicidal activity, XANST
# Type: in vivo
# Settings: 63 g a.i./ha
# Excerpt: Upland field soil was put into a 1/170,000 ha pot, and seeds of various plants were sown. Then, when the plants reached predetermined leaf stages {1. barnyardgrass (Echinochloa crus-galli L.), ECHCG: 1.1-2.1 leaf stage, 2. crabgrass (Digitaria sanguinalis L.), DIGSA: 1.0-2.0 leaf stage, 3. green foxtail (Setaria viridis L.), SETVI: 1.0-2.2 leaf stage, 4. redroot pigweed (Amaranthus retroflexus L.), AMARE: 0.1-1.5 leaf stage, 5. prickly sida (Sida spinosa L.), SIDSP: 0.1-0.6 leaf stage, 6. velvetleaf (Abutilon theophrasti), ABUTH: 0.1-0.6 leaf stage, 7. common cocklebur (Xanthium strumarium L.), XANST: 0.1 leaf stage, 8. rice (Oryza sativa L.), ORYSA; 1.0-2 leaf stage, 9. wheat (Triticum aestivum L.), TRZAX: 2.3-3.5 leaf stage, 10. corn (Zea mays L.), ZEAMXN 2.1-2.6 leaf stage, 11. soybean (Glycine max Merr.), GLXMA: primary leaf stage}, a wettable powder or emulsifiable concentrate having the compound of the present invention formulated in accordance with a usual formulation method, was weighed so that the active ingredient would be a predetermined amount, and diluted with water in an amount of 500 L/ha. To the diluted solution, 0.1% (v/v) of an agricultural spreader was added. The herbicide adjusted was applied by a small size sprayer for foliage treatment. On the 20th to 23rd day after the application of the herbicide, the growth of the respective plants was visually observed, and the herbicidal effects were evaluated by growth controlling degrees (%) ranging from 0 (equivalent to the untreated control) to 100 (complete kill), whereby the results shown in Table 5, were obtained. Compound Nos. in Table 5 correspond to Compound Nos. in Table 1 and 2 given hereinbefore.
row,SMILES,"growth controlling degree, XANST [%]"
1,COc1c(Cl)cc(F)c(-c2nn(C)c(OC(F)F)c2Cl)c1NC(=O)C=C(C)C [Compound 1-9],70
2,COc1c(Cl)cc(F)c(-c2nn(C)c(OC(F)F)c2Cl)c1N(C=O)C1CCCC1 [Compound 1-10],100
